pIC50: −log10 of the molar value. Like-named read-outs stand apart in the source and are kept apart here.
Columns and labels:
[1] = molecular target: T1, catalytic domain (JH1, amino acids 826-1132) of human JAK2 (Homo sapiens, UniProt O60674); assay: JAK2 LanthaScreen JH1 binding assay; settings: read-out: JH1 Bind IC50
T1 construct: catalytic domain (JH1, amino acids 826-1132) of human JAK2; FLAG (N); biotin (biotinylated); purchased Carna Biosciences 08-445-20N; host or cells: baculovirus expression system
T1 sequence (O60674 826-1132): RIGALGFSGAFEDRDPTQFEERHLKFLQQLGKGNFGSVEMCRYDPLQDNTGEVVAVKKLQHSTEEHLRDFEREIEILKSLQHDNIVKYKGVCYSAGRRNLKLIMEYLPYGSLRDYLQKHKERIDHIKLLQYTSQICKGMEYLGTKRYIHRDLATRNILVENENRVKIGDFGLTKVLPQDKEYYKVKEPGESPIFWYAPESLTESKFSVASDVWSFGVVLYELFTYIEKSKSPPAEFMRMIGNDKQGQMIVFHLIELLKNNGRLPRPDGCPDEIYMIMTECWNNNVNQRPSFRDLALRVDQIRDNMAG
Description: Example A. JAK2 LanthaScreen […] Binding Assay
JAK2 JH1 binding assay utilizes catalytic domain (JH1, amino acids 826-1132) of human JAK2 expressed as N-terminal FLAG-tagged, biotinylated protein in a baculovirus expression system (Carna Biosciences, Product #08-445-20N). The assay was conducted in black 384-well polystyrene plates in a final reaction volume of 20 μL. JAK2 JH1 (1.5 nM) was incubated with compounds (100 nL serially diluted in DMSO) in the presence of 50 nM fluorescent JAK2-JH1 tracer and 0.5 nM Streptavidin-Tb cryptate (Cisbio Part #610SATLB) in assay buffer (50 mM Tris, pH=7.5, 10 mM MgCl2, 0.01% Brij-35, 0.1% BSA, 1 mM EGTA, 5% Glycerol and 5 mM DTT). Non-specific binding was accessed in the presence of 2 mM ATP. After incubation for 2 hours at 25° C., LanthaScreen signals were read on a PHERAstar FS plate reader (BMG LABTECH). Data was analyzed with IDBS XLfit and GraphPad Prism 5.0 software using a four parameter dose response curve to determine IC50 for each compound.

FLT3 = FLT3 enzymatic assay; type: biochemical
How it was run: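 Kinase reaction at room temperature in HEPES 50 mM pH 7.0 with 10 mM MgCl2, 1 mM DTT: 0.011 nM FLT3, 1 mM ATP, 500 nM biotinylated TK substrate, 0.5% DMSO. After 60 min, HTRF read as 665/620 nm ratio; IC50 from fit of percent control activity versus log concentration.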

KIT [2] = molecular target: KIT (Homo sapiens, UniProt P10721); assay: KIT enzymatic assay; type: biochemical; settings: 1 mM ATP
Sequence of KIT (Homo sapiens, UniProt P10721) (P10721 26-976, species assumed): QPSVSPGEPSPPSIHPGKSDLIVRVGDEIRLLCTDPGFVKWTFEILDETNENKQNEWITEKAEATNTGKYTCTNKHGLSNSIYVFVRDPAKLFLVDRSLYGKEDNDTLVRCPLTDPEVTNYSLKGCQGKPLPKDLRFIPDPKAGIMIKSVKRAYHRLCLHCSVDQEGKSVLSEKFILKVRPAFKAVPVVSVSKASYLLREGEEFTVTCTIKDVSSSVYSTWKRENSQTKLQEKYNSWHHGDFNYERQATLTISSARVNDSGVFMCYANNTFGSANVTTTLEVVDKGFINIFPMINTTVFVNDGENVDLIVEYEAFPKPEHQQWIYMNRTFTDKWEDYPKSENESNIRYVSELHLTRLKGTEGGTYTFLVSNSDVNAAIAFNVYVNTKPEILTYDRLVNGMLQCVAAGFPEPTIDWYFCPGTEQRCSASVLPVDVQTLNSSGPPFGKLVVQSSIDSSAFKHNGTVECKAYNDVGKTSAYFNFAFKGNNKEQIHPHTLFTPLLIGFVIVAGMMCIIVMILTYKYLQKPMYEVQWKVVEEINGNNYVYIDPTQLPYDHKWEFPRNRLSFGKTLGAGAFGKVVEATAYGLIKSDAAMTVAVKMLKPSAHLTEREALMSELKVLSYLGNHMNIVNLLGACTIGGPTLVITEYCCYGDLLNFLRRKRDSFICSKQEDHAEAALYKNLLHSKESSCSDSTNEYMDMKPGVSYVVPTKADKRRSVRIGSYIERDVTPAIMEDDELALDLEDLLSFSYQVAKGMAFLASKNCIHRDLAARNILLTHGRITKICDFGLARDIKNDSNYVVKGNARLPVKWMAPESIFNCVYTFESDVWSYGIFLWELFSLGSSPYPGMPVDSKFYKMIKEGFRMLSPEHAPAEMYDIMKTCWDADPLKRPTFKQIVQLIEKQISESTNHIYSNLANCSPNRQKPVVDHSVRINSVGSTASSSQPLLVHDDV
How it was run: (§1)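 0.12 nM KIT with 1 mM ATP and 500 nM biotinylated TK substrate in 50 mM HEPES pH 7.0, 10 mM MgCl2, 1 mM DTT, 0.1 mM orthovanadate, 0.5% DMSO; 60 min at room temperature. TR-FRET 665/620 nm ratio; IC50 fitted from percent control activity versus log concentration.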

KIT [3] = assay: KIT enzymatic assay; type: biochemical
How it was run: as §1

[4] = system: pSTAT5 signaling in SET-2 cells in whole blood; assay: pSTAT5 SET-2 whole blood MSD assay; type: cell-based; settings: Homo sapiens, pSTAT5, 2 hour, read-out: SET2 WB IC50
Description: Example F. pSTAT5 SET-2 Whole Blood MSD Assay
SET-2 cells shipped from ABS, RPMI1640 medium, Fetal Bovine Serum from Gibco, Phospho-STAT5a,b Whole Cell Lysate Kit from Mesoscale, Retronectin (Recombinant Human Fibronectin Fragment) from TaKaRa, 96 well cell culture plate flat bottom from Corning, lysis buffer from Cell Signaling Technology, and sterile PBS from Gibco. Whole Blood from by BioIVT.
SET-2 cells were cultured in RPMI media with 20% FBS at 37° C. humidified incubator supplied with 5% CO2. On the day of the assay, 40 uL per well of diluted retronectin working solution was added to sterile 96-well clear flat bottom tissue culture plates (1:200 dilution of retronectin in sterile PBS) and incubated at 37 C for 1 hour. After 1 hour, the retronectin working solution was aspirated and SET-2 cells were seeded at 100,000/well in RPMI+20% FBS. Cells were incubated overnight at 37° C. and 5% CO2. The next day, the medium was removed and 40 μL of diluted compounds in serum-free RPMI and whole blood was added to the cells for a 2 hour incubation at 37° C. and 5% CO2. The compound starting concentration is 20 μM and 2.5 fold serial diluted down to 0.21 nM. The whole blood and compound mixture was then aspirated off using the BlueCat plate washer and washed 1× with PBS. Cells were lysed by adding 40 μL of 3× complete lysis buffer and shaken at room temperature for 45-60 minutes (complete lysis buffer consists of Cell Signaling Technology lysis buffer diluted to 3× and supplemented with Mesoscale's protease inhibitor, phosphatase I inhibitor, and phosphatase II inhibitor). The pSTAT5 MSD plates were blocked by adding 150 μL of Blocker A solution per well to the MSD plates and incubated at room temperature with shaking at 400 rpm for one hour or longer. After blocking, plates were washed 3× with 300 μL/well of IX Tris Wash Buffer. After lysis, added 25 μL per well of lysed sample was added to MSD plate and incubated with shaking at 4° C. wrapped in foil overnight. The next day, plates were washed again and 25 μL/well of diluted 1× Detection Antibody Solution, wrapped in foil, and incubated at room temperature with shaking at 400 rpm for 1 hour. Plates were then washed again and lastly, 150 μL/well of 1× Read Buffer T was added to all wells. Plates were analyzed on MSD Discovery within 5 minutes. […] Data analysis was performed in GraphPad Prism using a 4-parameter fit and data was reported as Average±SD.

SMILES	pIC50 ([1]; Table A)	pIC50 ([1]; Table C)	Selectivity FLT3/JH2 V617F (FLT3)	pIC50 (KIT [2])	Selectivity KIT/JH2 V617F (KIT [3])	pIC50 [4]
[2H]C([2H])([2H])n1c(=O)n([C@@H]2CC[C@@H](NC(=O)OC)C2)c2c3c(-c4ccc5c(c4)COC5(C)C)c(-c4cn(C([2H])([2H])C([2H])([2H])[2H])nc4F)[nH]c3ncc21 [Example 19, Methyl ((1R,3R)-3-(8-(1,1-dimethyl-1,3-dihydroisobenzofuran-5-yl)-7-(1-(ethyl-d5)-3-fluoro-1H-pyrazol-4-yl)-3-(methyl-d3)-2-oxo-3,6-dihydroimidazo[4,5-d]pyrrolo[2,3-b]pyridin-1(2H)-yl)cyclopentyl)carbamate]	< 6.00	< 6.00	****** (selectivity of >12500-fold)	< 5.60	****** (selectivity of >12500-fold)	≥ 5.60
COC(=O)N[C@@H]1CC[C@@H](n2c(=O)n(C)c3cnc4[nH]c(-c5cn(C)nc5OC)c(-c5ccc(OC)c(F)c5)c4c32)C1 [Example 4, Methyl ((1R,3R)-3-(8-(3-fluoro-4-methoxyphenyl)-7-(3-methoxy-1-methyl-1H-pyrazol-4-yl)-3-methyl-2-oxo-3,6-dihydroimidazo[4,5-d]pyrrolo[2,3-b]pyridin-1(2H)-yl)cyclopentyl)carbamate]	< 6.00	< 6.00	***** (selectivity of >5000-fold to ≤12500-fold)	< 5.60	****** (selectivity of >12500-fold)	≥ 5.60
[2H]C([2H])([2H])n1cc(-c2[nH]c3ncc4c(c3c2-c2ccc3c(cnn3C(C)C)c2)n([C@@H]2CC[C@@H](NC(=O)OC)C2)c(=O)n4C)c(F)n1 [Example 16, Methyl ((1R,3R)-3-(7-(3-fluoro-1-(methyl-d3)-1H-pyrazol-4-yl)-8-(1-isopropyl-1H-indazol-5-yl)-3-methyl-2-oxo-3,6-dihydroimidazo[4,5-d]pyrrolo[2,3-b]pyridin-1(2H)-yl)cyclopentyl)carbamate]	< 6.00	< 6.00	***** (selectivity of >5000-fold to ≤12500-fold)	5.60 to 5.90	****** (selectivity of >12500-fold)	≥ 5.60
[2H]C([2H])([2H])n1cc(-c2[nH]c3ncc4c(c3c2-c2ccc3c(cnn3C(C)C)c2)n([C@@H]2CC[C@@H](NC(=O)OC)C2)c(=O)n4C([2H])([2H])[2H])c(F)n1 [Example 13, Methyl ((1R,3R)-3-(7-(3-fluoro-1-(methyl-d3)-1H-pyrazol-4-yl)-8-(1-isopropyl-1H-indazol-5-yl)-3-(methyl-d3)-2-oxo-3,6-dihydroimidazo[4,5-d]pyrrolo[2,3-b]pyridin-1(2H)-yl)cyclopentyl)carbamate]	< 6.00	< 6.00	****** (selectivity of >12500-fold)	5.90 to 6.60	**** (selectivity of >1750-fold to ≤5000-fold)	≥ 5.60
COC(=O)N[C@@H]1CC[C@@H](n2c(=O)n(C)c3cnc4[nH]c(-c5cn(C)nc5OC)c(-c5cccc(F)c5)c4c32)C1 [Example 3, Methyl ((1R,3R)-3-(8-(3-fluorophenyl)-7-(3-methoxy-1-methyl-1H-pyrazol-4-yl)-3-methyl-2-oxo-3,6-dihydroimidazo[4,5-d]pyrrolo[2,3-b]pyridin-1(2H)-yl)cyclopentyl)carbamate]	< 6.00	< 6.00	**** (selectivity of >1750-fold to ≤5000-fold)	5.60 to 5.90	**** (selectivity of >1750-fold to ≤5000-fold)	5.12 to 5.30
[2H]C([2H])([2H])n1cc(-c2[nH]c3ncc4c(c3c2-c2ccc3c(cnn3CC(F)F)c2)n([C@@H]2CC[C@@H](NC(=O)OC)C2)c(=O)n4C)c(F)n1 [Example 18, Methyl ((1R,3R)-3-(8-(1-(2,2-difluoroethyl)-1H-indazol-5-yl)-7-(3-fluoro-1-(methyl-d3)-1H-pyrazol-4-yl)-3-methyl-2-oxo-3,6-dihydroimidazo[4,5-d]pyrrolo[2,3-b]pyridin-1(2H)-yl)cyclopentyl)carbamate]	< 6.00	< 6.00	****** (selectivity of >12500-fold)	5.60 to 5.90	****** (selectivity of >12500-fold)	≥ 5.60
[2H]C([2H])([2H])n1ncc2cc(-c3c(-c4cn(C([2H])([2H])C([2H])([2H])[2H])nc4F)[nH]c4ncc5c(c34)n([C@@H]3CC[C@@H](NC(=O)OC)C3)c(=O)n5C([2H])([2H])[2H])ccc21 [Example 15, Methyl ((1R,3R)-3-(7-(1-(ethyl-d5)-3-fluoro-1H-pyrazol-4-yl)-3-(methyl-d3)-8-(1-(methyl-d3)-1H-indazol-5-yl)-2-oxo-3,6-dihydroimidazo[4,5-d]pyrrolo[2,3-b]pyridin-1(2H)-yl)cyclopentyl)carbamate]	< 6.00	< 6.00	***** (selectivity of >5000-fold to ≤12500-fold)	5.90 to 6.60	**** (selectivity of >1750-fold to ≤5000-fold)	≥ 5.60
[2H]C([2H])([2H])n1ncc2cc(-c3c(-c4cn(C([2H])(C([2H])([2H])[2H])C([2H])([2H])[2H])nc4F)[nH]c4ncc5c(c34)n([C@@H]3CC[C@@H](NC(=O)OC)C3)c(=O)n5C([2H])([2H])[2H])ccc21 [Example 21, Methyl ((1R,3R)-3-(7-(3-fluoro-1-(propan-2-yl-d7)-1H-pyrazol-4-yl)-3-(methyl-d3)-8-(1-(methyl-d3)-1H-indazol-5-yl)-2-oxo-3,6-dihydroimidazo[4,5-d]pyrrolo[2,3-b]pyridin-1(2H)-yl)cyclopentyl)carbamate]	< 6.00	< 6.00	****** (selectivity of >12500-fold)	5.60 to 5.90	****** (selectivity of >12500-fold)	≥ 5.60
[2H]C([2H])([2H])n1cc(-c2[nH]c3ncc4c(c3c2-c2ccc3c(c2)COC3(C)C)n([C@@H]2CC[C@@H](NC(=O)OC)C2)c(=O)n4C([2H])([2H])[2H])c(F)n1 [Example 8, Methyl ((1R,3R)-3-(8-(1,1-dimethyl-1,3-dihydroisobenzofuran-5-yl)-7-(3-fluoro-1-(methyl-d3)-1H-pyrazol-4-yl)-3-(methyl-d3)-2-oxo-3,6-dihydroimidazo[4,5-d]pyrrolo[2,3-b]pyridin-1(2H)-yl)cyclopentyl)carbamate]	< 6.00	< 6.00	****** (selectivity of >12500-fold)	5.60 to 5.90	****** (selectivity of >12500-fold)	≥ 5.60

Reference: patent US12084430B2, “Tricyclic urea compounds as JAK2 V617F inhibitors” (Incyte Corporation, priority 2022, dated 2024)
